Measurements from BindingDB's records for doi:10.1016/j.bmc.2007.02.010 (Princeton University, 2007).

Biological target: T1, E3 ubiquitin-protein ligase XIAP [241-356] (Homo sapiens, UniProt P98170)
T1 construct: 241-356
Assay: Competitive Fluorescent-binding Assay
Settings: pH 7; 22 °C
Procedure: AVPC-badan can be displaced from the binding pocket of the protein by test compounds. As the dye is displaced from the binding pocket, the emission is reduced and resembles that of the AVPC-badan dye in solution alone. The AUC for the emission spectra of AVPC-badan alone, AVPC-badan, and for the Smac mimic bound to BIR3-XIAP are used to calculate a relative Kd for the Smac mimic. The relative Kd is then converted to an absolute Kd using the Kd value for AVPC-badan, which was determined in a titration assay.

T1 sequence (P98170 241-356): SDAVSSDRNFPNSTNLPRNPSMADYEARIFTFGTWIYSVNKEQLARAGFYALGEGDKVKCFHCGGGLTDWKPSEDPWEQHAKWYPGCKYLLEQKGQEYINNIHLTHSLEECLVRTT

Kd: 300 µM
Structure (SMILES): CC[C@@H](C)[C@H](NC(=O)[C@@H]1CCCN1C(=O)c1coc([C@H](C)N)n1)C(=O)O [(2S,3R)-2-{[(2S)-1-({2-[(1S)-1-aminoethyl]-1,3-oxazol-4-yl}carbonyl)pyrrolidin-2-yl]formamido}-3-methylpentanoic acid]
